Reference: patent US20110065796A1 (SHIRE LLC, priority 2009, published 2011)

How the values were obtained:
[1] = Prodrug stability in simulated intestinal fluid; settings: 37° C., pH 6.8, HPLC
Method: (§1) The remaining concentrations of the prodrugs were then assayed by H PLC.

[2] = Comparative pharmacokinetic screening study in the monkey (relative Cmax of guanfacine); settings: oral gavage, monkey screening study
Method: Blood samples were taken on 4 sampling occasions at various times up to 6 hours after administration and submitted to analysis for the parent drug and prodrug using a qualified LC-MS-MS assay.

[3] = Prodrug stability in simulated gastric fluid; settings: 37° C., pH 1.1, HPLC
Method: as §1

[4] = Prodrug stability in freshly withdrawn porcine intestinal fluid; type: in vitro ADME; settings: for Prodrug remaining at 3 h: porcine intestinal fluid pH 6.8, 37° C., in % (unit assumed)
Source text: Many of the peptidases in the intestinal lumen may not be present in the USP simulated intestinal fluid preparations previously described. […] The prodrugs evaluated were selected on the basis of adequate pharmacokinetics (see Example 8).

% prodrug remaining following incubation for 2 h in simulated intestinal fluid pH 6.8 [1] [%]	prodrug levels in plasma (in words) [2]	% prodrug remaining following incubation for 1 h in simulated gastric fluid pH 1.1 [3] [%]	Prodrug remaining at 3 h [4]	stability in porcine intestinal fluid (in words) [4]	Compound
110	high prodrug levels	58			O=C(O)CC[C@@H]1N=C(NC(=O)Cc2c(Cl)cccc2Cl)NC1=O [Compound 37, Guanfacine-(S)-Glutamic Cyclic Adduct]
99		96	81.26 ± 4.57		N=C(NC(=O)Cc1c(Cl)cccc1Cl)NC(=O)OCCNC(=O)CC[C@H](N)C(=O)O [Compound 58, Guanfacine (Ethanolamine-(S)-γ-Glutamate) Carbamate]
105	high prodrug levels	101			CN(CC(=O)O)C(=O)NC(=N)NC(=O)Cc1c(Cl)cccc1Cl [Compound 9, Guanfacine Sarcosine Urea]
101		83			NCCCC[C@@H]1N=C(NC(=O)Cc2c(Cl)cccc2Cl)NC1=O [Compound 36, Guanfacine-(S)-Lysine Cyclic Adduct]
99		79			CC(C)[C@H](NC(=O)CC(C)(C)CC(=O)NC(=N)NC(=O)Cc1c(Cl)cccc1Cl)C(=O)O [Compound 33, Guanfacine (3,3-dimethylglutaryl-(S)-Valine) Amide]
85		106			CC(C)[C@@H](N)C(=O)NCCCC(=O)NC(=N)NC(=O)Cc1c(Cl)cccc1Cl [Compound 22, Guanfacine (GABA-(R)-Valine) Amide]
106		81			N=C(NC(=O)CCCNC(=O)CC[C@H](N)C(=O)O)NC(=O)Cc1c(Cl)cccc1Cl [Compound 57, Guanfacine (GABA-(S)-γ-Glutamate) Amide]
89		91			CNCC(=O)NCCOC(=O)NC(=N)NC(=O)Cc1c(Cl)cccc1Cl [Compound 71, Guanfacine (Ethanolamine-Sarcosine) Carbamate]
95		78			N=C(NC(=O)Cc1c(Cl)cccc1Cl)NC(=O)OC[C@H](NC(=O)[C@@H]1CCC(=O)N1)C(=O)O [Compound 16, Guanfacine ((S)-Serine-(S)-Pyroglutamic acid) Carbamate]
66		79	48.9 ± 0.8		CNCC(=O)N[C@@H](CCC(=O)NC(=N)NC(=O)Cc1c(Cl)cccc1Cl)C(=O)O [Compound 7, Guanfacine ((S)-γ-Glutamate-Sarcocine) Amide]
112		83			CC(=O)N[C@@H](COC(=O)NC(=N)NC(=O)Cc1c(Cl)cccc1Cl)C(=O)O [Compound 15, Guanfacine Acetyl-(S)-Serine Carbamate]
100		92			CC[C@H](C)[C@H](N)C(=O)NCCOC(=O)NC(=N)NC(=O)Cc1c(Cl)cccc1Cl [Compound 59, Guanfacine (Ethanolamine-(S)-Isoleucine) Carbamate]
75		86			CC(C)(COC(=O)NC(=N)NC(=O)Cc1c(Cl)cccc1Cl)[C@@H](O)C(=O)NCCC(=O)O [Compound 68, Guanfacine Pantothenic acid Carbamate]
85		75			CSCC[C@@H](N)C(=O)N[C@@H](CCC(=O)NC(=N)NC(=O)Cc1c(Cl)cccc1Cl)C(=O)O [Compound 44, Guanfacine ((S)-γ-Glutamate-(R)-Methionine) Amide]
100		96			N=C(NC(=O)Cc1c(Cl)cccc1Cl)NC(=O)NC(C(=O)O)c1ccccc1 (stereo not drawn) [Compound 8, Guanfacine Phenylglycine Urea]
112		82			N=C(NC(=O)CCNC(=O)[C@@H]1CCC(=O)N1)NC(=O)Cc1c(Cl)cccc1Cl [Compound 10, Guanfacine (β-Alanine-(S)-Pyroglutamic acid) Amide]

% prodrug remaining following incubation for 2 h in simulated intestinal fluid pH 6.8 [1] [%]	prodrug levels in plasma (in words) [2]	% prodrug remaining following incubation for 1 h in simulated gastric fluid pH 1.1 [3] [%]	Prodrug remaining at 3 h [4]	stability in porcine intestinal fluid (in words) [4]	Compound
93		88			N=C(NC(=O)Cc1c(Cl)cccc1Cl)NC(=O)OC[C@H](NC(=O)CCN)C(=O)O [Compound 64, Guanfacine ((S)-Serine-β-Alanine) Carbamate]
102		92			C[C@@H](OC(=O)NC(=N)NC(=O)Cc1c(Cl)cccc1Cl)[C@H](NC(=O)[C@@H]1CCC(=O)N1)C(=O)O [Compound 19, Guanfacine ((S)-Threonine-(S)-Pyroglutamic acid) Carbamate]
101		87			N=C(NC(=O)Cc1c(Cl)cccc1Cl)NC(=O)OCCNC(=O)CN [Compound 49, Guanfacine (Ethanolamine-Glycine) Carbamate]
93		64			N=C(NC(=O)CC[C@H](NC(=O)c1ccc(N)cc1)C(=O)O)NC(=O)Cc1c(Cl)cccc1Cl [Compound 70, Guanfacine ((S)-γ-Glutamate-PABA) Amide]
83		70			CC(C)C[C@@H](N)C(=O)N[C@@H](CCC(=O)NC(=N)NC(=O)Cc1c(Cl)cccc1Cl)C(=O)O [Compound 42, Guanfacine ((S)-γ-Glutamate-(R)-Leucine) Amide]
111		70			CC(C)[C@H](N)C(=O)NCCCC(=O)NC(=N)NC(=O)Cc1c(Cl)cccc1Cl [Compound 56, Guanfacine (GABA-(S)-Valine) Amide]
160		77			CC(C)[C@@H](NC(=O)COC(=O)NC(=N)NC(=O)Cc1c(Cl)cccc1Cl)C(=O)O [Compound 30, Guanfacine (Glycolyl -(R)-Valine) Carbamate]
100		101			N=C(NC(=O)Cc1c(Cl)cccc1Cl)NC(=O)Nc1ccc(C(=O)O)cc1 [Compound 53, Guanfacine PABA Urea]
91		97	13.8 ± 0.6	very unstable	CC(C)[C@H](N)C(=O)NCCOC(=O)NC(=N)NC(=O)Cc1c(Cl)cccc1Cl [Compound 26, Guanfacine (Ethanolamine-(S)-Valine) Carbamate]
97		84	87.77 ± 5.80	high stability	N=C(NC(=O)Cc1c(Cl)cccc1Cl)NC(=O)c1ccc(N)cc1 [Compound 52, Guanfacine PABA Amide]
85		62			N=C(NC(=O)CC[C@H](NC(=O)[C@H](N)CCCCN)C(=O)O)NC(=O)Cc1c(Cl)cccc1Cl [Compound 43, Guanfacine ((S)-γ-Glutamate-(R)-Lysine) Amide]
87		48			CN1CC(=O)N=C1NC(=O)Cc1c(Cl)cccc1Cl [Compound 12, Guanfacine-Sarcosine Cyclic Adduct]
97		99			N=C(NC(=O)Cc1c(Cl)cccc1Cl)NC(=O)OCC[C@H](NC(=O)CCN)C(=O)O [Compound 67, Guanfacine ((S)- Homoserine-β-Alanine) Carbamate]
89		72			N=C(NC(=O)CC[C@H](NC(=O)[C@H](N)CO)C(=O)O)NC(=O)Cc1c(Cl)cccc1Cl [Compound 47, Guanfacine ((S)-γ-Glutamate-(R)-Serine) Amide]
81		85			CCC(C)[C@@H](N)C(=O)NCCCC(=O)NC(=N)NC(=O)Cc1c(Cl)cccc1Cl (stereo partly drawn) [Compound 50, Guanfacine (GABA-(R)-Isoleucine) Amide]

Compound	% prodrug remaining following incubation for 2 h in simulated intestinal fluid pH 6.8 [1] [%]	prodrug levels in plasma (in words) [2]	% prodrug remaining following incubation for 1 h in simulated gastric fluid pH 1.1 [3] [%]	Prodrug remaining at 3 h [4]	stability in porcine intestinal fluid (in words) [4]
N=C(NC(=O)Cc1c(Cl)cccc1Cl)NC(=O)Oc1ccc(C[C@H](N)C(=O)O)cc1 [Compound 13, Guanfacine (S)-Tyrosine Carbamate]	81		74		
